Source: PubChem BioAssay (NCI)
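Results reflect a 48-hour exposure of cells in 96-well plates to compound at five concentrations. GI50: concentration for 50% inhibition of growth. TGI: total growth inhibition.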

How the values were obtained:
Assay in all cases: growth of human tumour cells (NCI), 48 h
[1] = system: TK-10 renal
[2] = system: COLO 205 colon
[3] = system: SK-MEL-5 melanoma
[4] = system: HS 578T breast
[5] = system: OVCAR-3 ovarian
[6] = system: CAKI-1 renal
[7] = system: SK-MEL-28 melanoma
[8] = system: A549 NSCLC
[9] = system: MOLT-4 leukemia
[10] = system: IGROV1 ovarian

| Compound | TGI [1] [µM] | TGI [2] [µM] | TGI [3] [µM] | TGI [4] [µM] | TGI [5] [µM] | TGI [6] [µM] | TGI [7] [µM] | TGI [8] [µM] | TGI [9] [µM] | TGI [10] [µM] | GI50 [4] [µM] | GI50 [6] [µM] | GI50 [8] [µM] | GI50 [9] [µM] | GI50 [10] [µM] |
| --- | --- | --- | --- | --- | --- | --- | --- | --- | --- | --- | --- | --- | --- | --- | --- |
| CCOC(=O)C(NC(=O)c1ccccc1)(Nc1ccc(S(=O)(=O)Nc2ncccn2)cc1)C(F)(F)F (stereo not given) | > 100 | > 100 | > 100 | > 100 | > 100 | > 100 | > 100 | > 100 | > 100 | > 100 | – | – | – | – | – |
| CC(Oc1ccccc1Cl)C(=O)NN1C(=O)CC(=O)N(c2ccccc2)C1=S (stereo not given) | > 100 | > 100 | > 100 | > 100 | > 100 | > 100 | > 100 | > 100 | > 100 | > 100 | – | – | – | – | – |
| CC(=O)Oc1cc(S(=O)(=O)Nc2n[nH]c(Nc3ccc(C)cc3)n2)c(S)cc1Cl | > 100 | > 100 | > 100 | > 100 | > 100 | > 100 | > 100 | > 100 | > 100 | > 100 | – | – | – | – | – |
| CN(C)c1ccc(/C=C/c2ccc(S(N)(=O)=O)cc2)cc1 | 39.8 | 99.2 | 25.8 | 12.6 | 49.8 | > 100 | 28 | 26.2 | > 100 | 33.4 | 3.03 | 50.3 | 10.1 | > 100 | 13.4 |
| COc1ccccc1Cc1ccc(C2C=CC3(CC(=O)C=C3C)C(=O)C2)o1 (stereo not given) | > 100 | 50.5 | 29 | 68.7 | 23.5 | > 100 | > 100 | > 100 | 34.1 | > 100 | – | – | – | – | – |
| NNC(=O)CC(=O)Nc1cccc(Cl)c1 | > 100 | > 100 | > 100 | > 100 | > 100 | > 100 | > 100 | > 100 | > 100 | > 100 | – | – | – | – | – |
